According to patent publication US12465615B2, “Aqueous solutions containing purines and pyrimidines and uses thereof” (UCB BIOSCIENCES, INC., priority 2021, dated 2025):

Key:
Type in all cases: physicochemical
[1] = Solubility of thymidine in aqueous liquids (300 mg in 3.0 mL, stirring, HPLC)
Source text: The solubility of thymidine was investigated wherein the dissolving liquid was water, pH 3 buffered water, and deoxycytidine containing water. The deoxycytidine employed in the solubility studies is referred to as Form A deoxycytidine, e.g. as described in U.S. Patent Publication 2021/0054014, which is incorporated herein by reference. Form A deoxycytidine is characterized by an X-ray diffraction pattern comprising peaks at 8.4, 12.9, 14.2, 16.8, 18.4, 19.4, 28.4, 30.0, and 30.6 degrees two-theta (2θ) (+/−0.2). The X-ray diffraction pattern can be recorded using CuKα1 radiation.
(§1) The procedure involved adding 300 mg of the thymidine to 3.0 mL of liquid and stirring. The three liquids were water, water wherein 50 mg/mL of deoxycytidine had already been dissolved, and water buffered at about pH 3. The pH 3 buffered water was created by adding 821 mg of anhydrous citric acid and 213 mg of sodium citrate dehydrate to a 100 mL volumetric flask and adding water to the 100 mL mark while dissolving the solids. The deoxycytidine solution was created by adding 500 mg of deoxycytidine to a 10 mL volumetric flask and filling the flask with water while dissolving the solids, yielding a pH of 8.23 and a deoxycytidine concentration of about 50 mg/mL.
(§2) The liquids were stirred and samples were withdrawn at 5 mins, 10 mins, and 24 hours. At each time period 0.7 mL of the suspension was removed and subjected to filtration through a 0.45 μm PTFE filter, and 0.3 mL of the suspension was removed and centrifuged at 10,000 rpm for 2 minutes. The filtrate from the filtration and the supernatant from the centrifugation were subjected to high performance liquid chromatography (HPLC) to determine the amount of dissolved thymidine.
Solubilities are reported in mg/mL.

[2] = pH of thymidine suspensions after stirring
Description: as §1, §2
The pH of the suspensions were also recorded.

[3] = Reconstitution of thymidine in water with differing amounts of deoxycytidine (HPLC content after 2 minutes of mixing); conditions: 6000 mg dT in 120 mL water
Description: The solubility of thymidine in combination with different amounts of deoxycytidine was determined using HPLC and reconstitution methods as described below.
Each 50 mg/mL stock solution was prepared by adding 120 mL of purified water to a 400 mL beaker, stirring the water at 650 rpm, and then adding the amounts of thymidine and/or deoxycytidine as listed in the Table 3 below for each sample to form mixtures.
Each mixture was stirred at 650 rpm for about 1 minute, after which the stirring was reduced to 150 rpm and maintained at 150 rpm for about 1 minute. After about 2 minutes total, the mixture was filtered through a 0.45 μm syringe filter to obtain filtered stock solutions for each sample.
0.9 mg/mL intermediate solutions of each of the above samples were prepared by adding 1.0 mL of the respective filtered stock solution into a 50 mL volumetric flask and diluting to volume with a diluent (e.g., water) and mixing.
0.09 mg/mL working solutions of each of the above samples were prepared by adding 1.0 mL of the respective intermediate solution into a 10 mL volumetric flask and diluting to volume with a diluent (e.g., water) and mixing. The resulting mixture was transferred to an HPLC vial.
Working solutions for each of the above samples were subjected to HPLC analysis utilizing the conditions and parameters below and in Table 4. The data collected from the HPLC analysis was then used to calculate percent content of thymidine dissolved for each sample after 2 minutes of mixing. • Mobile Phase A: Purified Water (degassed by sonication) • […] (degassed by sonication)
[formula] • ASample=Peak area of dC or dT in the sample solution • WStd=Weight of dC or dT reference material [mg] • PurityStd=Purity of dC or dT reference material in %/100 • VSample=Dilution of sample solution corrected with dC or dT [mL] • LCFW=Correction factor of Label Claim and fill weight/0.4825 (2000 mg/4145 mg) • AStd=Mean peak area of dC or dT in the 6 injections of Std1 at beginning • WSample=Weight of sample (mg) • VStd=Dilution of standard solution [mL]/50 mL • 100=Conversion in % Results
The dC Level is the percentage of the mass of dC relative to dT. The dT Content is the percentage of dT in solution within 2 minutes of stirring in the presence of the indicated dC level.

[4] = Water with 50 mg/mL of deoxycytidine, stirring 24 hrs
[5] = pH 3 buffered water, stirring 10 mins
[6] = pH 3 buffered water, stirring 24 hrs

Cc1cn([C@H]2C[C@H](O)[C@@H](CO)O2)c(=O)[nH]c1=O [thymidine]
thymidine solubility higher than the thymidine solubility in water ([1]; 50 mg/mL deoxycytidine solution versus water, 5 minutes): about 38%
Dissolved thymidine [1, 4]: 65.62 mg/mL
Dissolved thymidine ([1]; Water, stirring 24 hrs): 51.04 mg/mL
thymidine solubility higher than in water ([1]; deoxycytidine liquid versus water, 10 minutes): about 58%
Dissolved thymidine [1, 5]: 59.66 mg/mL
Dissolved thymidine [1, 6]: 52.04 mg/mL
pH of suspensions ([2]; Water with 50 mg/mL of deoxycytidine, stirring 5 mins): 7.3
pH of suspensions ([2]; Water with 50 mg/mL of deoxycytidine, stirring 10 mins): 7.1
pH of suspensions [2, 4]: 7.3
pH of suspensions ([2]; Water, stirring 5 mins): 7.3
pH of suspensions ([2]; Water, stirring 10 mins): 7.3
pH of suspensions ([2]; Water, stirring 24 hrs): 7.3
pH of suspensions ([2]; pH 3 buffered water, stirring 5 mins): 3.2
pH of suspensions [2, 5]: 3.1
pH of suspensions [2, 6]: 3.1
dT Content (percentage of dT in solution within 2 minutes of stirring) ([3]; dC Level 0 % (mass of dC relative to dT)): 89.09%
dT Content (percentage of dT in solution within 2 minutes of stirring) ([3]; dC Level 10 %): 93.39%
dT Content (percentage of dT in solution within 2 minutes of stirring) ([3]; dC Level 20 %): 92.69%
dT Content (percentage of dT in solution within 2 minutes of stirring) ([3]; dC Level 40 %): 95.68%
dT Content (percentage of dT in solution within 2 minutes of stirring) ([3]; dC Level 80 %): 96.78%
dT Content (percentage of dT in solution within 2 minutes of stirring) ([3]; dC Level 100 %): 95.91%
